How the values were obtained:
[1] = Determination of cationic lipid levels in rat liver (LC/MS-MS); format: in vivo; settings: rats dosed with RDV, 0.5 mg/kg; compared with RDV containing DLinKC2DMA (Compound 12) or MC3 (Compound 13), also 0.5 mg/kg
Description: Liver tissue was weighed into 20-ml vials and homogenized in 9 v/w of water using a GenoGrinder 2000 (OPS Diagnostics, 1600 strokes/min, 5 min). A 50 μL aliquot of each tissue homogenate was mixed with 300 μL of extraction/protein precipitating solvent (50/50 acetonitrile/methanol containing 500 nM internal standard) and the plate was centrifuged to sediment precipitated protein. A volume of 200 μL of each supernatant was then transferred to separate wells of a 96-well plate and 10 μl samples were directly analyzed by LC/MS-MS.
Standards were prepared by spiking known amounts of a methanol stock solution of compound into untreated rat liver homogenate (9 vol water/weight liver). Aliquots (50 μL) each standard/liver homogenate was mixed with 300 μL of extraction/protein precipitating solvent (50/50 acetonitrile/methanol containing 500 nM internal standard) and the plate was centrifuged to sediment precipitated protein. A volume of 200 μL of each supernatant was transferred to separate wells of a 96-well plate and 10 μl of each standard was directly analyzed by LC/MS-MS.
Absolute quantification versus standards prepared and extracted from liver homogenate was performed using an Aria LX-2 HPLC system (Thermo Scientific) coupled to an API 4000 triple quadrupole mass spectrometer (Applied Biosystems). […]

[2] = system: mRNA transcript for the ApoB gene; experiment: Rat in vivo evaluation of efficacy (ApoB siRNA LNP, liver ApoB mRNA by RT-PCR); settings: RDV (LNP) with ApoB siRNA, tail vein, Sprague-Dawley female rats, 24 hours after dosing; compared with RDV containing DLinKC2DMA (Compound 12)
Description: (§1) Six hours post dose, food is removed from the cages. Animal necropsy is performed 24 hours after LNP dosing. Rats are anesthetized under isoflurane for 5 minutes, then maintained under anesthesia by placing them in nose cones continuing the delivery of isoflurane until ex-sanguination is completed. Blood is collected from the vena cava using a 23 gauge butterfly venipuncture set and aliquoted to serum separator vacutainers for serum chemistry analysis. Punches of the excised caudate liver lobe are taken and placed in RNALater (Ambion) for mRNA analysis. Preserved liver tissue was homogenized and total RNA isolated using a Qiagen bead mill and the Qiagen miRNA-Easy RNA isolation kit following the manufacturer's instructions. Liver ApoB mRNA levels were determined by quantitative RT-PCR. Message was amplified from purified RNA utilizing a rat ApoB commercial probe set (Applied Biosystems Cat #RN01499054_m1). The PCR reaction was performed on an ABI 7500 instrument with a 96-well Fast Block. The ApoB mRNA level is normalized to the housekeeping PPIB (NM 011149) mRNA. PPIB mRNA levels were determined by RT-PCR using a commercial probe set (Applied Biosytems Cat. No. Mm00478295_m1). Results are expressed as a ratio of ApoB mRNA/PPIB mRNA. All mRNA data is expressed relative to the PBS control dose. […]

[3] = Rat in vivo evaluation of toxicity (serum ALT and AST); settings: RDV (LNP) with ApoB siRNA, tail vein, Sprague-Dawley female rats, 24 hours after dosing; compared with RDV containing DLinKC2DMA (Compound 12)
Description: as §1

[4] = system: mRNA transcript for the firefly (Photinus pyralis) luciferase gene; experiment: Mouse in vivo evaluation of efficacy (luciferase siRNA LNP, liver luminescence); settings: RDV (LNP) with Luc siRNA, tail vein, 0.1 to 0.5 mg/kg siRNA, imaged 48 hours post dose; compared with RDV containing Compound A
Description: LNPs utilizing Compound 4, in the nominal compositions described immediately above, were evaluated for in vivo efficacy. The siRNA targets the mRNA transcript for the firefly (Photinus pyralis) luciferase gene (Accession #M15077). […] The in vivo luciferase model employs a transgenic mouse in which the firefly luciferase coding sequence is present in all cells. ROSA26-LoxP-Stop-LoxP-Luc (LSL-Luc) transgenic mice licensed from the Dana Farber Cancer Institute are induced to express the Luciferase gene by first removing the LSL sequence with a recombinant Ad-Cre virus (Vector Biolabs). Due to the organo-tropic nature of the virus, expression is limited to the liver when delivered via tail vein injection. Luciferase expression levels in liver are quantitated by measuring light output, using an IVIS imager (Xenogen) following administration of the luciferin substrate (Caliper Life Sciences). Pre-dose luminescence levels are measured prior to administration of the RDVs. Luciferin in PBS (15 mg/mL) is intraperitoneally (IP) injected in a volume of 150 μL. After a four minute incubation period mice are anesthetized with isoflurane and placed in the IVIS imager. The RDVs (containing siRNA) in PBS vehicle were tail vein injected n a volume of 0.2 mL. […] In vivo efficacy results are expressed as % inhibition of luminescence relative to pre-dose luminescence levels. […]

CCCCC/C=C\C/C=C\CCCCCCCCO[C@@H]1CN(C)C[C@H]1OCCCCCCCC (relative stereo) [Compound 4, trans-1-Methyl-3-[((9Z,12Z)-octadeca-9,12-dienyl)oxy]-4-octyloxy-pyrrolidine]
cationic lipid levels in rat liver [1]: much lower | in vivo efficacy (liver ApoB mRNA/PPIB mRNA relative to PBS control) [2]: Modestly decreased efficacy | tolerability (increases in serum alanine amino transferase and aspartate amino transferase) [3]: significantly improved tolerability | in vivo efficacy (% inhibition of luminescence relative to pre-dose luminescence levels) [4]: Greater efficacy
